Source: ChEMBL document CHEMBL5385977, “Small molecules modulating RNA splicing: a review of targets and future perspectives” (RSC Med Chem, 2024)
Each block holds one compound with its values, some of them ahead of it.

Assays:
Splicing factor 45 = target: T1, Splicing factor 45 (Homo sapiens, UniProt Q96I25); assay: Inhibition of His-tagged SPF45-UHM (unknown origin) (301 to 401 residues) expressed in Escherichia coli BL21 (DE3) cells by using biotinylated-RKSRWDETP as substrate preincubated for 30 mins followed by substrate addition and measured after 1 hr by AlphaScreen assay
T1 sequence (Q96I25 whole entry): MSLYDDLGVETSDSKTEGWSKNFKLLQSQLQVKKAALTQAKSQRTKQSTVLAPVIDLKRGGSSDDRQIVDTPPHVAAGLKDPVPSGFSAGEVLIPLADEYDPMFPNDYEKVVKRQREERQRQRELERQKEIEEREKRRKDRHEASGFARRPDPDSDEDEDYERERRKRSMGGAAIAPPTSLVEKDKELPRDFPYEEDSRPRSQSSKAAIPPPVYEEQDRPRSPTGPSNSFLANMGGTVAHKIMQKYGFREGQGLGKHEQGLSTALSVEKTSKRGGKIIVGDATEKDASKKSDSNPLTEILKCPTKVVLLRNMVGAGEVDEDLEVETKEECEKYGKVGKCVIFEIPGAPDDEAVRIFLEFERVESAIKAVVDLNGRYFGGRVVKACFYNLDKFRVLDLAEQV

[1] = target: Programmed cell death protein 1/Programmed cell death 1 ligand 1 (Homo sapiens, UniProt Q15116+Q9NZQ7); assay: Inhibition of PD-1/PD-L1 interaction (unknown origin) incubated for 24 hrs by HTRF assay; format: protein-complex assay
Programmed cell death protein 1/Programmed cell death 1 ligand 1, sequence (Q15116 whole entry): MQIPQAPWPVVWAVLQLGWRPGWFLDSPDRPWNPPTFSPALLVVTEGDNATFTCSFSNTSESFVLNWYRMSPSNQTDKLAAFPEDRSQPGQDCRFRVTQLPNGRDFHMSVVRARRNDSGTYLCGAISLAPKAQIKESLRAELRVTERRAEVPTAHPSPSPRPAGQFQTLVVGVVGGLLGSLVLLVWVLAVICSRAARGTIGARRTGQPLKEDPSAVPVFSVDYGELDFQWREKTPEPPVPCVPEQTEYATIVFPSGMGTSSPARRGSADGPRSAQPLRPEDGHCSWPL
Programmed cell death protein 1/Programmed cell death 1 ligand 1, sequence (Q9NZQ7 whole entry): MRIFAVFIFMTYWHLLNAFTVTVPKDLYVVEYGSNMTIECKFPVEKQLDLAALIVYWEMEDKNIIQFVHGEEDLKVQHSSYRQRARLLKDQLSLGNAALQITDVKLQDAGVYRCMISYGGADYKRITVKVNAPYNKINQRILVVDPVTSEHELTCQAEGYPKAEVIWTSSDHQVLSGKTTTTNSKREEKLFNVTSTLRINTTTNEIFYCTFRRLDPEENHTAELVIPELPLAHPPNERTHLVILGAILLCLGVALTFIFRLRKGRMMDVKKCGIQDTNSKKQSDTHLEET

[2] = Inhibition of N-terminal His-tagged U2AF35-UHM (unknown origin) expressed in Escherichia coli Rosetta cells (DE3) incubated for 1 hr by HTRF method; parameters: species or system Homo sapiens
[3] = target: Vascular endothelial growth factor receptor 2 (Homo sapiens, UniProt P35968); assay: Inhibition of human VEGFR2 (unknown origin) incubated for 1 hrs in presence of ATP by ELISA assay
Vascular endothelial growth factor receptor 2, sequence (P35968 whole entry): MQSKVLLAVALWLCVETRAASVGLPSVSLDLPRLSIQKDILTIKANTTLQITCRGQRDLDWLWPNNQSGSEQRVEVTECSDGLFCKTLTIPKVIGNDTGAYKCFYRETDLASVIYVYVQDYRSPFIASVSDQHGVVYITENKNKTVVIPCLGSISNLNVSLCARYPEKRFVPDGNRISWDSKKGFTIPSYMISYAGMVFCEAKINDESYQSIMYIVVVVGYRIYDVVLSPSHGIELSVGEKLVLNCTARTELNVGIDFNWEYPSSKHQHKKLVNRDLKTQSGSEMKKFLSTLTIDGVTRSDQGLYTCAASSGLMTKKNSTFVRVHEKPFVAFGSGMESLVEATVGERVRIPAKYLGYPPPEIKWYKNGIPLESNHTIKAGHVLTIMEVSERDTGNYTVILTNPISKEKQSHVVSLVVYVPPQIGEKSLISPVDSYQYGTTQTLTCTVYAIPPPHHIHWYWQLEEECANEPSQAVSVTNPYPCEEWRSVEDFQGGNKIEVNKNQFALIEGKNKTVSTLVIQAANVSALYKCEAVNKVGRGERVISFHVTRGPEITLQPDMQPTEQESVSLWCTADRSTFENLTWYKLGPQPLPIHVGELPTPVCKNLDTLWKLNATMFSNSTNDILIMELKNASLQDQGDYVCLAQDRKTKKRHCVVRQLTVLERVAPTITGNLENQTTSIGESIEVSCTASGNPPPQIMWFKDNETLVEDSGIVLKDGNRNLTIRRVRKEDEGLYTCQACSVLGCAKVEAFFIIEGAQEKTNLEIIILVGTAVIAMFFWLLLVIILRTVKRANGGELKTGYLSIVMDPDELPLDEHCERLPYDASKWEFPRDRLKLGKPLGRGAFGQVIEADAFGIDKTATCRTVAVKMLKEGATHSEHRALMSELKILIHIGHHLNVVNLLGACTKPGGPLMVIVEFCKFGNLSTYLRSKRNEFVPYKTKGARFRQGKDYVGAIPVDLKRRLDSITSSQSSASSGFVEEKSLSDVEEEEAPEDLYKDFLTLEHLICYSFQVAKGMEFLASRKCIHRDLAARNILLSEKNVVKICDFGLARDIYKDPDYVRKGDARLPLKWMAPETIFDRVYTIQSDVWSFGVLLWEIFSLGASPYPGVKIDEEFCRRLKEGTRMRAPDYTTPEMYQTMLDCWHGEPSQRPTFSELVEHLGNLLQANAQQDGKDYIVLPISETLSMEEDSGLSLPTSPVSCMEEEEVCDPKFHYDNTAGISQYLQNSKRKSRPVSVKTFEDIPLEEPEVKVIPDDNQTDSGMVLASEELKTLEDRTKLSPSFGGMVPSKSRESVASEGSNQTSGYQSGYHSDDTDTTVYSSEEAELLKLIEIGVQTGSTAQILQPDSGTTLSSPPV

IC50 (Splicing factor 45): 10.4 µM
Structure (SMILES): COc1cc2c(cc1OC)N(CCCN1CCN(CCO)CC1)c1cc(Cl)ccc1S2
IC50 [1]: 9.2 µM

Structure (SMILES): CC(CCc1c[nH]c2ccccc12)N1C[C@H]2CC[C@@H](C1)C2N (some centres undefined)
IC50 [2]: 74.9 µM

IC50 [3]: 0.96 µM
Structure (SMILES): O=C(Nc1cc(C(F)(F)F)ccc1N1CCCCC1)c1ccncc1
